Laboratory results: publication PMC5887547, “An allosteric inhibitor of Mycobacterium tuberculosis ArgJ: Implications to a novel combinatorial therapy” (EMBO Molecular Medicine, 2018)

Tests used:
[1] = molecular target: T1, Ornithine acetyltransferase (MtArgJ) (Mycobacterium tuberculosis, UniProt P9WPZ3); assay: thermal shift assay (apparent Kd); also ANS displacement ([…]) and enzyme inhibition by TLC assay (Dixon Ki […]); format: binding
T1 construct: gene argJ

[2] = molecular target: T1, Ornithine acetyltransferase (MtArgJ); assay: […]; marginal decrease of enzyme activity (TLC assay); format: binding
[3] = system: CC(=O)N[C@@H](CCCN)C(=O)O; assay: purified protein; conditions: active (substrate-binding) site

T1 sequence (P9WPZ3 1-199): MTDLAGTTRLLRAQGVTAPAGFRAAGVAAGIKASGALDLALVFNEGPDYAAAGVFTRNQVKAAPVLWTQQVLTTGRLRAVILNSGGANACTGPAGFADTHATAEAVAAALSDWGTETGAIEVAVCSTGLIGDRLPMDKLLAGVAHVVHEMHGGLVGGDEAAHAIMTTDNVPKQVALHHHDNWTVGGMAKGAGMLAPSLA
T1 sequence (P9WPZ3 200-404): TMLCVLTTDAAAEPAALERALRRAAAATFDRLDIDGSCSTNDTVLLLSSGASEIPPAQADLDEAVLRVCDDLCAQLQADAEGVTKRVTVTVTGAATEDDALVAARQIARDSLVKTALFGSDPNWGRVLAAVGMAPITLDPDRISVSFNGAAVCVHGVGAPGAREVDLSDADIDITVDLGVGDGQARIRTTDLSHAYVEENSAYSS

O=C(Nc1cccc2c(=O)cc(-c3nnn[nH]3)oc12)c1ccc(OCCCCc2ccccc2)cc1 [PRK, Pranlukast] was tested, and the Kd [1] was 126 µM.

With O=S(=O)(O)c1cccc2cccc(Nc3ccccc3)c12 [ANS, 8‐anilinonaphthalene‐1‐sulfonic acid] the Kd [2] was 937 µM.

“Ornithine acetyltransferase (MtArgJ) (Mycobacterium tuberculosis H37Rv)” gave a Km [3] of 91.8 µM.
